Values quoted from earlier work as cited in patent publication US9227980B2, “Methods for the purification of cucurbituril” (CAMBRIDGE ENTERPRISE LIMITED, priority 2009, dated 2016).

solubility in water (qualitative) | SMILES
soluble in water | O=C1N2CN3C(=O)N4CN5C(=O)N6CN7C(=O)N8CN9C(=O)N%10CN1C1C2N2CN%11C(=O)N(CN%12C(=O)N(CN%13C(=O)N(CN%14C(=O)N(CN1C2=O)C%10C9%14)C8C7%13)C6C5%12)C4C3%11 (centres unmarked) [CB[5]]
are not | O=C1N2CN3C(=O)N4CN5C(=O)N6CN7C(=O)N8CN9C(=O)N%10CN%11C(=O)N%12CN1C1C2N2CN%13C(=O)N(CN%14C(=O)N(CN%15C(=O)N(CN%16C(=O)N(CN%17C(=O)N(CN1C2=O)C%12C%11%17)C%10C9%16)C8C7%15)C6C5%14)C4C3%13 (centres unmarked) [CB[6]]
